The target in this test is recombinant mTOR (FLAG-tagged, residues 1362-2549) (Homo sapiens, UniProt P42345). Briefly: In vitro mTOR kinase assay (Test (a), AlphaScreen). As to conditions: ATP 20 μM, read-out: Test (a): IC50 versus mTOR kinase. The test is classed as biochemical. The gist of the method: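 AlphaScreen read-out: a phospho-T389 p70 S6K antibody on acceptor beads captures the phosphorylated biotin-peptide on donor beads, with signal loss indicating inhibition.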
Sequence of recombinant mTOR (FLAG-tagged, residues 1362-2549) (P42345 1362-2549): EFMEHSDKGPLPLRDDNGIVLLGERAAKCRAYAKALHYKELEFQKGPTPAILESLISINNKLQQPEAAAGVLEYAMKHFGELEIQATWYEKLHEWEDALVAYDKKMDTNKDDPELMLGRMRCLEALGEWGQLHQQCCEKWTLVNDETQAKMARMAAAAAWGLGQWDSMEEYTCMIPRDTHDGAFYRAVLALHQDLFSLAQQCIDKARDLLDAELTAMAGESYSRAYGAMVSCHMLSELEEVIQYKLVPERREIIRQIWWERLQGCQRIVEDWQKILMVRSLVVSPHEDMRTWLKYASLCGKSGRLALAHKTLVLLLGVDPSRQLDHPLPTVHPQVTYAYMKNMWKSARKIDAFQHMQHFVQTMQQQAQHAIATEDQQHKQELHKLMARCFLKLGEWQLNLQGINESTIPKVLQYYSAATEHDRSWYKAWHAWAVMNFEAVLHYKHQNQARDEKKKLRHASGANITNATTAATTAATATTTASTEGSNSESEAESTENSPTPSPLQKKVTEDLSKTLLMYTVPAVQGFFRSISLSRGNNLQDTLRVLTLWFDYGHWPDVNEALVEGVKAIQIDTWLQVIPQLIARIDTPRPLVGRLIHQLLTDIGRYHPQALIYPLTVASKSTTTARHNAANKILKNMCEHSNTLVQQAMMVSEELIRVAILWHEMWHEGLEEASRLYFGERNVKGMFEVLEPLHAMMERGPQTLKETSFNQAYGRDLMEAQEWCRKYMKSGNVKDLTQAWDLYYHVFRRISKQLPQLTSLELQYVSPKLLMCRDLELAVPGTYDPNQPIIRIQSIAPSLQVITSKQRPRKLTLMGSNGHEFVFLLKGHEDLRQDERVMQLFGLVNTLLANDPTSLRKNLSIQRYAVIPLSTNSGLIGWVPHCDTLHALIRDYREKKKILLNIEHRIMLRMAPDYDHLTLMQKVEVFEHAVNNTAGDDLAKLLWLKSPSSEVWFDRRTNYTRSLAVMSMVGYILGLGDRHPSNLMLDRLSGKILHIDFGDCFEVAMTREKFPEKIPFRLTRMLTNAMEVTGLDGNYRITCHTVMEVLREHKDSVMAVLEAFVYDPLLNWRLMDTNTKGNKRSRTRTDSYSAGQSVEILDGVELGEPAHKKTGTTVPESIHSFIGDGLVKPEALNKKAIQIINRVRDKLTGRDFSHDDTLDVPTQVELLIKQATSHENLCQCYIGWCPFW
Regarding `CNC(=O)Nc1ccc(-c2nc(CS(=O)(=O)c3ccccc3)cc(N3CCOC[C@@H]3C)n2)cc1` [Example 19a, 1-[4-[4-(benzenesulfonylmethyl)-6-[(3S)-3-methylmorpholin-4-yl]pyrimidin-2-yl]phenyl]-3-methyl-urea], the IC50 turned out to be 4.7 nM.
Regarding `CNC(=O)Nc1ccc(-c2nc(CS(=O)(=O)c3ccc(F)cc3)cc(N3CCOC[C@@H]3C)n2)cc1` [Example 19b, 1-[4-[4-[(4-fluorophenyl)sulfonylmethyl]-6-[(3S)-3-methylmorpholin-4-yl]pyrimidin-2-yl]phenyl]-3-methyl urea], the IC50 amounted to 33 nM.
Regarding `CNC(=O)Nc1ccc(-c2nc(CS(=O)(=O)c3ccc(NC(C)=O)cc3)cc(N3CCOC[C@@H]3C)n2)cc1` [Example 19c, N-[4-[[2-[4-(methylcarbamoylamino)phenyl]-6-[(3S)-3-methylmorpholin-4-yl]pyrimidin-4-yl]methylsulfonyl]phenyl]acetamide], the IC50 was 22 nM.
Next, `CNC(=O)Nc1ccc(-c2nc(CS(=O)(=O)C(C)C)cc(N3CCOC[C@@H]3C)n2)cc1` [Example 19d, 3-methyl-1-[4-[4-[(3S)-3-methylmorpholin-4-yl]-6-(propan-2-ylsulfonylmethyl)pyrimidin-2-yl]phenyl]urea]: 66 nM; `CNC(=O)Nc1ccc(-c2nc(CS(=O)(=O)CCO)cc(N3CCOC[C@@H]3C)n2)cc1` [Example 19e, 1-[4-[4-(2-hydroxyethylsulfonylmethyl)-6-[(3S)-3-methylmorpholin-4-yl]pyrimidin-2-yl]phenyl]-3-methyl-urea]: 11 nM.
As to `CNC(=O)Nc1ccc(-c2nc(CS(=O)(=O)c3ccccc3)cc(N3CCOCC3)n2)cc1` [Example 20, 3-[4-[4-(Benzenesulfonylmethyl)-6-morpholin-4-yl-pyrimidin-2-yl]phenyl]-1-methyl-urea], the concentration for half-maximal inhibition (IC50) was 43 nM.
As to `CCNC(=O)Nc1ccc(-c2nc(CS(=O)(=O)c3ccccc3)cc(N3CCOCC3)n2)cc1` [Example 20a, 3-[4-[4-(benzenesulfonylmethyl)-6-morpholin-4-yl-pyrimidin-2-yl]phenyl]-1-ethyl-urea], the IC50 came to 150 nM.
As to `O=C(Nc1ccc(-c2nc(CS(=O)(=O)c3ccccc3)cc(N3CCOCC3)n2)cc1)NC1CC1` [Example 20b, 1-[4-[4-(benzenesulfonylmethyl)-6-morpholin-4-yl-pyrimidin-2-yl]phenyl]-3-cyclopropyl-urea], the IC50 came to 170 nM.
Regarding `CN(C)CCNC(=O)Nc1ccc(-c2nc(CS(=O)(=O)c3ccccc3)cc(N3CCOCC3)n2)cc1` [Example 20c, 3-[4-[4-(benzenesulfonylmethyl)-6-morpholin-4-yl-pyrimidin-2-yl]phenyl]-1-(2-dimethylaminoethyl)urea], the IC50 stood at 1000 nM.
In the case of `CN1CCC(NC(=O)Nc2ccc(-c3nc(CS(=O)(=O)c4ccccc4)cc(N4CCOCC4)n3)cc2)CC1` [Example 20d, 3-[4-[4-(benzenesulfonylmethyl)-6-morpholin-4-yl-pyrimidin-2-yl]phenyl]-1-(1-methyl-4-piperidyl)urea], the IC50 amounted to 1600 nM.
For the molecule `COCCNC(=O)Nc1ccc(-c2nc(CS(=O)(=O)c3ccccc3)cc(N3CCOCC3)n2)cc1` [Example 20e, 3-[4-[4-(benzenesulfonylmethyl)-6-morpholin-4-yl-pyrimidin-2-yl]phenyl]-1-(2-methoxyethyl)urea], the IC50 is 2100 nM.
Then `CCNC(=O)Nc1ccc(-c2nc(CS(=O)(=O)c3ccccc3)cc(N3CCOC[C@@H]3C)n2)cc1` [Example 20f, 3-[4-[4-(benzenesulfonylmethyl)-6-[(3S)-3-methylmorpholin-4-yl]pyrimidin-2-yl]phenyl]-1-ethyl-urea], with 35 nM; and `C[C@H]1COCCN1c1cc(CS(=O)(=O)c2ccccc2)nc(-c2ccc(NC(=O)NC3CC3)cc2)n1` [Example 20g, 1-[4-[4-(benzenesulfonylmethyl)-6-[(3S)-3-methylmorpholin-4-yl]pyrimidin-2-yl]phenyl]-3-cyclopropyl-urea], with 39 nM; and `C[C@H]1COCCN1c1cc(CS(=O)(=O)c2ccccc2)nc(-c2ccc(NC(=O)NCCN(C)C)cc2)n1` [Example 20h, 1-[4-[4-(benzenesulfonylmethyl)-6-[(3S)-3-methylmorpholin-4-yl]pyrimidin-2-yl]phenyl]-3-(2-dimethylaminoethyl)urea], with 440 nM.
For `C[C@H]1COCCN1c1cc(CS(=O)(=O)c2ccccc2)nc(-c2ccc(NC(=O)NC3CCN(C)CC3)cc2)n1` [Example 20i, 1-[4-[4-(benzenesulfonylmethyl)-6-[(3S)-3-methylmorpholin-4-yl]pyrimidin-2-yl]phenyl]-3-(1-methyl-4-piperidyl)urea], the IC50 worked out at 700 nM.
In the case of `COCCNC(=O)Nc1ccc(-c2nc(CS(=O)(=O)c3ccccc3)cc(N3CCOC[C@@H]3C)n2)cc1` [Example 20j, 1-[4-[4-(benzenesulfonylmethyl)-6-[(3S)-3-methylmorpholin-4-yl]pyrimidin-2-yl]phenyl]-3-(2-methoxyethyl)urea], the IC50 was found to be 750 nM.
Next, `CNC(=O)Nc1ccc(-c2nc(CS(=O)(=O)C(C)C)cc(N3CCOCC3)n2)cc1` [Example 20k, 3-methyl-1-[4-[4-morpholin-4-yl-6-(propan-2-ylsulfonylmethyl)pyrimidin-2-yl]phenyl]urea]: 36 nM; `CCNC(=O)Nc1ccc(-c2nc(CS(=O)(=O)C(C)C)cc(N3CCOCC3)n2)cc1` [Example 20l, 1-ethyl-3-[4-[4-morpholin-4-yl-6-(propan-2-ylsulfonylmethyl)pyrimidin-2-yl]phenyl]urea]: 74 nM.
Take `CC(C)S(=O)(=O)Cc1cc(N2CCOCC2)nc(-c2ccc(NC(=O)NC3CC3)cc2)n1` [Example 20m, 3-cyclopropyl-1-[4-[4-morpholin-4-yl-6-(propan-2-ylsulfonylmethyl)pyrimidin-2-yl]phenyl]urea]: the 50% inhibitory concentration (IC50) stood at 81 nM.
Consider `CC(C)S(=O)(=O)Cc1cc(N2CCOCC2)nc(-c2ccc(NC(=O)NCCN(C)C)cc2)n1` [Example 20n, 3-(2-dimethylaminoethyl)-1-[4-[4-morpholin-4-yl-6-(propan-2-ylsulfonylmethyl)pyrimidin-2-yl]phenyl]urea], for which the IC50 stood at 860 nM.
For the molecule `CC(C)S(=O)(=O)Cc1cc(N2CCOCC2)nc(-c2ccc(NC(=O)NC3CCN(C)CC3)cc2)n1` [Example 20o, 3-(1-methyl-4-pipendyl)-1-[4-[4-morpholin-4-yl-6-(propan-2-ylsulfonylmethyl)pyrimidin-2-yl]phenyl]urea], the IC50 was found to be 1300 nM.
With `COCCNC(=O)Nc1ccc(-c2nc(CS(=O)(=O)C(C)C)cc(N3CCOCC3)n2)cc1` [Example 20p, 3-(2-methoxyethyl)-1-[4-[4-morpholin-4-yl-6-(propan-2-ylsulfonylmethyl)pyrimidin-2-yl]phenyl]urea], the IC50 amounted to 910 nM.
Take `CCNC(=O)Nc1ccc(-c2nc(CS(=O)(=O)C(C)C)cc(N3CCOC[C@@H]3C)n2)cc1` [Example 20q, 1-ethyl-3-[4-[4-[(3S)-3-methylmorpholin-4-yl]-6-(propan-2-ylsulfonylmethyl)pyrimidin-2-yl]phenyl]urea]: the IC50 was 39 nM.
`CC(C)S(=O)(=O)Cc1cc(N2CCOC[C@@H]2C)nc(-c2ccc(NC(=O)NC3CC3)cc2)n1` [Example 20r, 3-cyclopropyl-1-[4-[4-[(3S)-3-methylmorpholin-4-yl]-6-(propan-2-ylsulfonylmethyl)pyrimidin-2-yl]phenyl]urea]: the IC50 amounted to 94 nM.

The values are drawn from US7750003B2, “Compounds-943” (AstraZeneca AB, priority 2006, dated 2010).
